{"source": "patent US20240158750A1", "about": "“STROMA-FREE NK CELL DIFFERENTIATION FROM HUMAN PLURIPOTENT STEM CELLS” (The Children's Medical Center Corporation, priority 2021, published 2024)", "key": {"[1]": {"test_system": "iPS-derived CD34+ hemogenic endothelial cells", "experiment": "Stroma-free differentiation on DLL4-coated plates", "assay_type": "cell-based, human", "experimental": "FIG. 2 is a series of flow cytometry plot showing cells produced from a stroma-free differentiation protocol, which can be used to more specifically generate T or NK cells after 5 weeks. The culture conditions for T cells included: (i) EB-derived CD34^+ hemogenic endothelium (HE) on DLL4 coating (10 μg/ml), and (ii) IL-7 (50 ng/ml), SCF (100 ng/ml), Flt3 (100 ng/ml), and TPO (50 ng/ml, first 2 weeks). For more details concerning the stroma-free T cell differentiation protocol, see, e.g., International PCT publication WO 2021/150919, the content of which is incorporated herein by reference in its entirety. The culture conditions for NK cells included: EB-derived CD34^+ hemogenic endothelium (HE) on DLL4 coating (5 μg/ml), IL7 (10 ng/ml), SCF (50 ng/ml), and Flt3 (50 ng/ml).\nHemogenic CD34^+ endothelial cells were first derived from iPS (Example 2). The iPS-derived CD34^+ hemogenic endothelial cells were cultured on tissue culture plates coated with Notch ligands (e.g., DLL4; e.g., 5 μg/ml or 10 μg/ml in PBS, 3 hours in room temperature) using media containing a cocktail of growth factors (e.g., Flt3, SCF, IL7). […]"}, "MDA-MB-231 cells": {"test_system": "MDA-MB-231 cells", "details": "in MDA-MB-231 cells; cited from earlier work"}, "iPSC-derived EHT cells": {"test_system": "iPSC-derived EHT cells", "experiment": "RNA-seq of G9a-inhibitor treated EHT cells, PANTHER overrepresentation test", "assay_type": "cell-based, human", "details": "for Client Text Box Input (fold Enrichment): UNC0224 treated vs control EHT cells", "experimental": "RNA-seq analysis was performed on the same samples as in FIG. 6A."}, "[2]": {"test_system": "iPSC-derived CD34+CD45+ HSPCs", "experiment": "ATAC-seq of iPSC-derived CD34+CD45+ HSPCs treated during EHT", "assay_type": "cell-based, human", "details": "500 nM or 1 μM during conversion of HE into HSPCs for 5 days, versus DMSO", "experimental": "FIGS. 6A-6C are a series of schematics and graphs showing that G9a modulates chromatin accessibility of lymphoid genes. FIG. 6A is a schematic showing the experimental design. FIG. 6B is a heatmap showing assay for transposase-accessible chromatin using sequencing (ATAC-seq) peaks enriched in iPSC-derived CD34+CD45+ HSPCs that were treated with control vehicle (“DMSO”), 500 nM of UNC0224 (“UNC low”), or 1 μM of UNC0224 (“UNC high”) during the conversion of CD34+CD45− HE into CD34+CD45+ HSPCs for 5 days; 5 peaks are shown, labeled K1-K5.\nFIGS. 6A-6C show the mechanism by which G9a (EHMT2) regulates lymphoid fate decision in iPSC-derived HSPCs (iPSC-HSPCs). The iPSCs were first differentiated into CD34+ HEs, and the cells were then treated with DMSO or G9a inhibitor UNC0224 during the EHT stage, which allowed the HEs to specify into CD34+CD45+ HSPCs. ATAC-seq analysis was then performed on these iPSC-HSPCs to detect ATAC peaks that indicated accessible chromatin regions (as indicated by higher ATAC-seq scores)."}, "[3]": {"test_system": "class I HDAC (e.g., HDAC1, HDAC2, HDAC3)", "details": "cited from earlier work"}, "G9a (EHMT2)": {"test_system": "G9a (EHMT2)", "experiment": "Stroma-free NK cell differentiation with CRISPRi G9a (EHMT2) knockdown", "assay_type": "cell-based, human", "details": "G9a knockdown by Dox induced CRISPRi for 14 days, representative flow cytometry plot", "description": "FIGS. 5A-5C are a series of schematics and graphs showing that G9a (also referred to herein as EHMT2) repression promoted NK cell differentiation. FIG. 5A is a schematic showing the experimental design. FIG. 5B is representative flow cytometry results showing the production of CD5-CD56+NK cells from control iPSCs or iPSCs with EHMT2 (G9a) knockdown by doxycycline (Dox) induced CRISPRi (see, e.g., SEQ ID NO: 50) for 14 days. […] FIG. 5C is a dot pot showing the frequencies of CD5-CD56+NK cells derived from control iPSCs or iPSCs with EHMT2 (G9a) knockdown (n=3, * P<0.05).\nThe iPSCs were then differentiated into CD34+HE cells and treated with Dox to induce G9a knockdown. The control or Dox treated cells were then differentiated into CD7+ lymphoid progenitors and eventually CD5-CD56+NK cells using the stroma-free methods described herein (see, e.g., Table 1)."}}}
{"molecule": "DLL4: Notch ligand Delta-like-4, coated on tissue culture plates", "values": [{"measurement": "lineage outcome of differentiation", "setting": "[1]; higher concentration of DLL4 coating (e.g., 10 μg/ml)", "value": "promotes T cell differentiation"}, {"measurement": "lineage outcome of differentiation", "setting": "[1]; lower concentration of DLL4 coating (e.g., 5 μg/ml)", "value": "facilitates the generation of CD56^+ NK cells"}]}
{"molecule": "COc1cc2c(NC3CCN(C4CCCCC4)CC3)nc(N3CCCN(C(C)C)CC3)nc2cc1OCCCN1CCCCC1", "note": "[UNC0646]", "values": [{"measurement": "IC50", "setting": "MDA-MB-231 cells", "value": 26, "unit": "nM"}]}
{"molecule": "COc1cc2c(NC3CCN(CC4CCCCC4)CC3)nc(N3CCCN(C(C)C)CC3)nc2cc1OCCCN1CCCCC1", "note": "[UNC0631]", "values": [{"measurement": "IC50", "setting": "MDA-MB-231 cells", "value": 25, "unit": "nM"}]}
{"molecule": "COc1cc2c(NC3CCN(C)CC3)nc(N3CCCN(C)CC3)nc2cc1OCCCN(C)C", "note": "[UNC0224]", "values": [{"measurement": "Client Text Box Input (fold Enrichment)", "setting": "iPSC-derived EHT cells; B cell mediated immunity (GO:0019724)", "value": 7.3}, {"measurement": "Client Text Box Input (fold Enrichment)", "setting": "iPSC-derived EHT cells; T cell activation (GO:0042110)", "value": 14.53}, {"measurement": "Client Text Box Input (fold Enrichment)", "setting": "iPSC-derived EHT cells; T cell differentiation (GO:0030217)", "value": 18.46}, {"measurement": "Client Text Box Input (fold Enrichment)", "setting": "iPSC-derived EHT cells; adaptive immune response (GO:0002250)", "value": 6.79}, {"measurement": "Client Text Box Input (fold Enrichment)", "setting": "iPSC-derived EHT cells; adaptive immune response based on somatic recombination of immune receptors built from immunoglobulin superfamily domains (GO:0002460)", "value": 7.89}, {"measurement": "Client Text Box Input (fold Enrichment)", "setting": "iPSC-derived EHT cells; antigen processing and presentation (GO:0019882)", "value": 29.42}, {"measurement": "Client Text Box Input (fold Enrichment)", "setting": "iPSC-derived EHT cells; cell activation (GO:0001775)", "value": 5.69}, {"measurement": "Client Text Box Input (fold Enrichment)", "setting": "iPSC-derived EHT cells; cell-cell adhesion (GO:0098609)", "value": 4.83}, {"measurement": "Client Text Box Input (fold Enrichment)", "setting": "iPSC-derived EHT cells; cellular component assembly (GO:0022607)", "value": 2.21}, {"measurement": "Client Text Box Input (fold Enrichment)", "setting": "iPSC-derived EHT cells; cellular component biogenesis (GO:0044085)", "value": 2.44}, {"measurement": "Client Text Box Input (fold Enrichment)", "setting": "iPSC-derived EHT cells; cellular component organization or biogenesis (GO:0071840)", "value": 1.63}, {"measurement": "Client Text Box Input (fold Enrichment)", "setting": "iPSC-derived EHT cells; cellular protein-containing complex assembly (GO:0034622)", "value": 4.21}, {"measurement": "Client Text Box Input (fold Enrichment)", "setting": "iPSC-derived EHT cells; gene expression (GO:0010467)", "value": 1.58}, {"measurement": "Client Text Box Input (fold Enrichment)", "setting": "iPSC-derived EHT cells; immune effector process (GO:0002252)", "value": 6.63}, {"measurement": "Client Text Box Input (fold Enrichment)", "setting": "iPSC-derived EHT cells; immune response (GO:0006955)", "value": 2.87}, {"measurement": "Client Text Box Input (fold Enrichment)", "setting": "iPSC-derived EHT cells; immune system process (GO:0002376)", "value": 2.61}, {"measurement": "Client Text Box Input (fold Enrichment)", "setting": "iPSC-derived EHT cells; immunoglobulin mediated immune response (GO:0016064)", "value": 7.3}, {"measurement": "Client Text Box Input (fold Enrichment)", "setting": "iPSC-derived EHT cells; leukocyte activation (GO:0045321)", "value": 6.09}, {"measurement": "Client Text Box Input (fold Enrichment)", "setting": "iPSC-derived EHT cells; leukocyte cell-cell adhesion (GO:0007159)", "value": 15.11}, {"measurement": "Client Text Box Input (fold Enrichment)", "setting": "iPSC-derived EHT cells; leukocyte mediated immunity (GO:0002443)", "value": 7.27}, {"measurement": "Client Text Box Input (fold Enrichment)", "setting": "iPSC-derived EHT cells; lymphocyte activation (GO:0046649)", "value": 6.42}, {"measurement": "Client Text Box Input (fold Enrichment)", "setting": "iPSC-derived EHT cells; lymphocyte mediated immunity (GO:0002449)", "value": 7.62}, {"measurement": "Client Text Box Input (fold Enrichment)", "setting": "iPSC-derived EHT cells; positive regulation of T cell activation (GO:0050870)", "value": 22.09}, {"measurement": "Client Text Box Input (fold Enrichment)", "setting": "iPSC-derived EHT cells; positive regulation of biological process (GO:0048518)", "value": 2.02}, {"measurement": "Client Text Box Input (fold Enrichment)", "setting": "iPSC-derived EHT cells; positive regulation of cell activation (GO:0050867)", "value": 6.29}, {"measurement": "Client Text Box Input (fold Enrichment)", "setting": "iPSC-derived EHT cells; positive regulation of cell adhesion (GO:0045785)", "value": 17.95}, {"measurement": "Client Text Box Input (fold Enrichment)", "setting": "iPSC-derived EHT cells; positive regulation of cell-cell adhesion (GO:0022409)", "value": 21.54}, {"measurement": "Client Text Box Input (fold Enrichment)", "setting": "iPSC-derived EHT cells; positive regulation of cellular process (GO:0048522)", "value": 2.11}, {"measurement": "Client Text Box Input (fold Enrichment)", "setting": "iPSC-derived EHT cells; positive regulation of immune system process (GO:0002684)", "value": 5.43}, {"measurement": "Client Text Box Input (fold Enrichment)", "setting": "iPSC-derived EHT cells; positive regulation of leukocyte activation (GO:0002696)", "value": 6.29}, {"measurement": "Client Text Box Input (fold Enrichment)", "setting": "iPSC-derived EHT cells; positive regulation of leukocyte cell-cell adhesion (GO:1903039)", "value": 22.09}, {"measurement": "Client Text Box Input (fold Enrichment)", "setting": "iPSC-derived EHT cells; positive regulation of lymphocyte activation (GO:0051251)", "value": 6.53}, {"measurement": "Client Text Box Input (fold Enrichment)", "setting": "iPSC-derived EHT cells; production of molecular mediator of immune response (GO:0002440)", "value": 7.58}, {"measurement": "Client Text Box Input (fold Enrichment)", "setting": "iPSC-derived EHT cells; protein-containing complex assembly (GO:0065003)", "value": 3.99}, {"measurement": "Client Text Box Input (fold Enrichment)", "setting": "iPSC-derived EHT cells; protein-containing complex subunit organization (GO:0043933)", "value": 3.43}, {"measurement": "Client Text Box Input (fold Enrichment)", "setting": "iPSC-derived EHT cells; regulation of T cell activation (GO:0050863)", "value": 16.25}, {"measurement": "Client Text Box Input (fold Enrichment)", "setting": "iPSC-derived EHT cells; regulation of cell activation (GO:0050865)", "value": 5.42}, {"measurement": "Client Text Box Input (fold Enrichment)", "setting": "iPSC-derived EHT cells; regulation of cell adhesion (GO:0030155)", "value": 10.77}, {"measurement": "Client Text Box Input (fold Enrichment)", "setting": "iPSC-derived EHT cells; regulation of cell-cell adhesion (GO:0022407)", "value": 15.11}, {"measurement": "Client Text Box Input (fold Enrichment)", "setting": "iPSC-derived EHT cells; regulation of immune system process (GO:0002682)", "value": 4.07}, {"measurement": "Client Text Box Input (fold Enrichment)", "setting": "iPSC-derived EHT cells; regulation of leukocyte activation (GO:0002694)", "value": 5.49}, {"measurement": "Client Text Box Input (fold Enrichment)", "setting": "iPSC-derived EHT cells; regulation of leukocyte cell-cell adhesion (GO:1903037)", "value": 16.89}, {"measurement": "Client Text Box Input (fold Enrichment)", "setting": "iPSC-derived EHT cells; regulation of lymphocyte activation (GO:0051249)", "value": 5.82}, {"measurement": "RNA-seq gene expression change", "setting": "iPSC-derived EHT cells; treated versus control EHT cells", "value": "upregulation of genes associated with lymphoid development and function"}, {"measurement": "ATAC-seq peaks upregulated in treated cells", "setting": "[2]", "value": "associated with genes that are responsible for lymphoid differentiation/function"}]}
{"molecule": "Cn1cc(/C=C/C(=O)c2cccc(F)c2)cc1/C=C/C(=O)NO", "note": "[MC1568]", "values": [{"measurement": "inhibition of class I HDAC activity", "setting": "[3]", "value": "Class II HDAC (e.g., HDAC4 and HDAC5) inhibitor. Displays no inhibition of class I HDAC activity (e.g., HDAC1, HDAC2, HDAC3)."}]}
{"molecule": "SEQ ID NO: 50: G9a CRISPRi gRNA: AATGGCCAAAAAGCATGTAG (chemistry not given here)", "values": [{"measurement": "CD5-CD56+NK cells", "setting": "G9a (EHMT2)", "value": 64.7, "unit": "%"}]}
